Molecular target: T1, Uch-L3 (Homo sapiens, UniProt P15374)
T1 sequence (P15374 1-230): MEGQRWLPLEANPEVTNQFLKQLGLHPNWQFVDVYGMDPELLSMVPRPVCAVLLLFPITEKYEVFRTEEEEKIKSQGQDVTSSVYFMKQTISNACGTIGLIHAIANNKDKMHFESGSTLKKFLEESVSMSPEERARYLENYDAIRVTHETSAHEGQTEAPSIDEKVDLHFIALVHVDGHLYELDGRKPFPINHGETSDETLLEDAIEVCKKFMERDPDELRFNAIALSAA
Assay: UCH-L3 Activity Assay
Type: biochemical
Details: 400 nM Ub-AMC; 13 pM enzyme; pre-incubated 30 minutes at 25° C., 60 minutes at 37° C.; sigmoidal fit; read-out: Uch-L3 (Inhibition of cysteine protease activities)
Method: Uch-L3 was diluted in USP buffer (50 mM Tris HCl; 0.5 mM EDTA; 5 mM DTT; 0.01% Triton X-100; Bovine Serum Albumin 0.05 mg.ml^−1 pH7.6). Compounds stocks (100 mM) were stored at −20° C. in DMSO. Compounds were tested at the following final concentrations: 100 μM; 33.3 μM; 11.1 μM: 3.7 μM; 1.23 μM; 412 nM; 137 nM; 45.7 nM; 15.2 nM; 5 nM.
Reactions were performed as duplicates in Black LJL 96 well plates (HE microplates; Molecular Devices; 20 μl final reaction volume). The substrate concentration for Uch-L3 was 400 nM Ub-AMC (Boston Biochem). The concentration of the enzyme (Uch-L3) in specificity assays was 13 pM. The concentrations were determined in order to perform specificity assays under initial velocities at fixed substrate concentration. Compounds were pre-incubated with enzymes for 30 minutes at 25° C. Reactions were initiated by addition of substrate to the plates containing the enzymes (+/−compounds) diluted in assay buffer. Reactions were incubated for 60 minutes at 37° C. Reactions were stopped by adding acetic acid (100 mM final). Readings were performed on a Pherastar Fluorescent Reader (BMG). δ Emission 380 nm; δ Excitation=460 nm. Data (mean values +/− standard deviation) were analyzed as % of control (no compound) and plotted as percentage versus the Log of the compound concentration using GraphPad (Prism). Data were fitted to a sigmoidal model (variable slope).

Molecule	IC50 [nM]
6-(7)-Chloro-1-methyl-2,3,4,10,10a-pentaaza-cyclopenta[b]fluoren-9-one [Example 3/A]	323
Cc1nnc2nc3c(nn12)C(=O)c1ccccc1-3 [Example 1b/A, 1-Methyl-2,3,4,10,10a-pentaaza-cyclopenta[b]fluoren-9-one]	516
Cc1nnc2nc3c(nn12)-c1ccccc1C3=O [Example 1b/B, 3-Methyl-1,2,3a,4,10-pentaaza-cyclopenta[b]fluoren-9-one]	143
Nc1nnc2nc3c(nn12)C(=O)c1ccccc1-3 [Example 1c/A, 1-Amino-2,3,4,10,10a-pentaaza-cyclopenta[b]fluoren-9-one]	860
Nc1nnc2nc3c(nn12)-c1ccccc1C3=O [Example 1c/B, 3-Amino-1,2,3a,4,10-pentaaza-cyclopenta[b]fluoren-9-one]	133
CCc1nnc2nc3c(nn12)C(=O)c1ccccc1-3 [Example 1d/A, 1-Ethyl-2,3,4,10,10a-pentaaza-cyclopenta[b]fluoren-9-one]	430
CCc1nnc2nc3c(nn12)-c1ccccc1C3=O [Example 1d/B, 3-Ethyl-1,2,3a, 4,10-pentaaza-cyclopenta[b]fluoran-9-one]	95
CCCc1nnc2nc3c(nn12)C(=O)c1ccccc1-3 [Example 1e/A, 1-Propyl-2,3,4,10,10a-pentaaza-cyclopenta[b]fluoren-9-one]	1270
CCCc1nnc2nc3c(nn12)-c1ccccc1C3=O [Example 1e/B, 3-Propyl-1,2,3a, 4,10-pentaaza-cyclopenta[b]fluoren-9-one]	168
CCCCc1nnc2nc3c(nn12)C(=O)c1ccccc1-3 [Example 1f/A, 1-Butyl-2,3,4,10,10a-pentaaza-cyclopenta[b]fluoren-9-one]	364
CCCCc1nnc2nc3c(nn12)-c1ccccc1C3=O [Example 1f/B, 3-Butyl-1,2,3a,4,10-pentaaza-cyclopenta[b]fluoren-9-one]	91
CC(C)Cc1nnc2nc3c(nn12)C(=O)c1ccccc1-3 [Example 1g/A, 1-Isobutyl-2,3,4,10,10a-pentaaza-cyclopenta[b]fluoren-9-one]	636
CC(C)Cc1nnc2nc3c(nn12)-c1ccccc1C3=O [Example 1g/B, 3-Isobutyl-1,2,3a,4,10-pentaaza-cyclopenta[b]fluoren-9-one]	183
O=C1c2ccccc2-c2nc3nnc(CO)n3nc21 [Example 1h/A, 1-Hydroxymethyl-2,3,4,10,10a-pentaaza-cyclopenta[b]fluoren-9-one]	390
O=C1c2ccccc2-c2nn3c(CO)nnc3nc21 [Example 1h/B]	158
COCc1nnc2nc3c(nn12)C(=O)c1ccccc1-3 [Example 1i/A, 1-Methoxymethyl-2,3,4,10,10a-pentaaza-cyclopenta[b]fluoren-9-one]	261
COCc1nnc2nc3c(nn12)-c1ccccc1C3=O [Example 1i/B, 3-Methoxymethyl-1,2,3a, 4,10-pentaaza-cyclopenta[b]fluoren-9-one]	202
O=C1c2ccccc2-c2nc3nnc(C4CC4)n3nc21 [Example 1j/A, 1-Cyclopropyl-2,3,4,10,10a-pentaaza-cyclopenta[b]fluoren-9-one]	1900
O=C1c2ccccc2-c2nn3c(C4CC4)nnc3nc21 [Example 1j/B, 3-Cyclopropyl-1,2,3a,4,10-pentaaza-cyclopenta[b]fluoren-9-one]	55
O=C1c2ccccc2-c2nc3nnc(Cc4ccccc4)n3nc21 [Example 1k/A, 1-Benzyl-2,3,4,10,10a-pentaaza-cyclopenta[b]fluoren-9-one]	598
O=C1c2ccccc2-c2nn3c(Cc4ccccc4)nnc3nc21 [Example 1k/B, 3-Benzyl-1,2,3a,4,10-pentaaza-cyclopenta[b]fluoren-9-one]	164
Cc1nnc2nc3c(nn12)-c1ccc(Cl)cc1C3=O [Example 3/B, 7-Chloro-3-methyl-1,2,3a, 4,10-pentaaza-cyclopenta[b]fluoren-9-one]	71
Cn1nc2nc3c(nc2n1)-c1ccccc1C3=O [Example 4a, 2-Methyl-2H-1,2,3,4,10-pentaaza-cyclopenta[b]fluoren-9-one]	3400
O=C1c2ccccc2-c2nc3nn(Cc4ccccc4)nc3nc21 [Example 4b, 2-Benzyl-2H-1,2,3,4,10-pentaaza-cyclopenta[b]fluoren-9-one]	7800
